Data from patent US12517113B2, “Multikinase degraders” (University of Houston System, priority 2019, dated 2026).

Tests used:
CHK1 kinase = target: T1, CHK1 kinase (Homo sapiens, UniProt O14757); test: CHK1 degradation in A375 melanoma cells, western blotting; assay type: cell-based; details: western blot; for degradation of CHK1 kinase: 18 h treatment, 37° C., FIG. 6
T1 construct: endogenous in cells; host or cells: A375 human malignant melanoma cells (ATCC)
T1 sequence (O14757 1-476): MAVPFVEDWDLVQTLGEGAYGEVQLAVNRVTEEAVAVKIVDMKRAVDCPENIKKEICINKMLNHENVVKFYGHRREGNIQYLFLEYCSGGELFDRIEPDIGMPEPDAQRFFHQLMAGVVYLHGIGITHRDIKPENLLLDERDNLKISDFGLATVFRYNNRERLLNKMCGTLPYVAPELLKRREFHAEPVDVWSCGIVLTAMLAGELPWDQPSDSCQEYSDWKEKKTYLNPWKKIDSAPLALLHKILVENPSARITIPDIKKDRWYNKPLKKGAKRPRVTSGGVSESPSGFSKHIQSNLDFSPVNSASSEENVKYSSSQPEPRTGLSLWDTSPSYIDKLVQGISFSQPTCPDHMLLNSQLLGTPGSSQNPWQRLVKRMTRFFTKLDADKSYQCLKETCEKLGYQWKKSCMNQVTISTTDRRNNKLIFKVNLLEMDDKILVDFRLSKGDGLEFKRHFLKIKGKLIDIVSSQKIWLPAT
Experimental: (§1) Tests were performed to determine the activity of the exemplary PROTACs PEG1-thalidomide, PEG2-thalidomide, PEG3-thalidomide, and PEG4-thalidomide having the structures shown above. Human A375 malignant melanoma cells were obtained from American Type Culture Collection ATCC) and cultured according to ATCC protocols. Subsequently cells were treated with the PROTACs for 18 h at 37° C. and 5% CO2. Subsequently cells were harvested and lysed using commercially available lysis buffer (Biorad) containing Roche cOmplete™ Protease Inhibitor Cocktail tablets. The amount of degraded proteins were probed with specific antibodies purchased from Cell Signaling in western blotting. α-Tubulin was used as the loading control.
In further tests, human A375 malignant melanoma cells were treated with PEG2-thalidomide at different concentrations for 12 h at 37° C. and 5% CO2. Proteins CHK1, GAPDH, and α-Tubulin were probed by specific antibodies. GAPDH and α-Tubulin were used as the loading control. […] Cell culture conditions, lysis and western blotting were performed similar to above.

[1] = test system: A375 malignant melanoma cells; test: A375 cell viability, CellTiter Glo assay; assay type: cell-based; details: Homo sapiens, A-375, 48 h treatment, 384 well plates, FIG. 10
Experimental: In further tests, human A375 malignant melanoma cells were treated with PEG2-thalidomide for 48 h at 37° C. and 5% CO2. Subsequently, the viability of A375 malignant melanoma cells was checked using CellTiter Glo assay (Promega) in 384 well plates, and the luminescence signal was quantified using Biotek H1 plate reader.

ERK kinase = test: ERK degradation in A375 melanoma cells, western blotting; assay type: cell-based, human; details: 12 h, western blot, FIG. 8
Experimental: as §1
(§2) In further tests, the effect of PEG2-Thalidomide degrader […] was tested. Human A375 malignant melanoma cells were treated with PEG2-thalidomide for 12 h at 37° C. and 5% CO2. Proteins MEK and ERK were probed by specific antibodies. The procedure used was similar to the one outlined above.

MEK kinase = test: MEK degradation in A375 melanoma cells, western blotting; assay type: cell-based, human; details: 12 h, western blot, FIG. 8
Experimental: as §1, §2

degradation of CHK1 kinase (CHK1 kinase) | dose response of degradation of CHK1 (CHK1 kinase; different concentrations, 12 h, FIG. 7) | IC50 [1] [nM] | Structure (SMILES) | degradation of ERK kinase (ERK kinase) | degradation of MEK kinase (MEK kinase)
degrade the protein CHK1 | demonstrating its degradation | 768 | N#CCc1ccc(Nc2nc(Nc3cc(C4CC4)[nH]n3)cc(C(=O)NCc3cn(CCOCCOCCNC(=O)COc4cccc5c4C(=O)N(C4CCC(=O)NC4=O)C5=O)nn3)n2)cc1 (stereo not drawn) [PEG2-thalidomide] | not ERK | degradation of MEK
degrade the protein CHK1 | – | – | N#CCc1ccc(Nc2nc(Nc3cc(C4CC4)[nH]n3)cc(C(=O)NCc3cn(CCOCCOCCOCCOCCNC(=O)COc4cccc5c4C(=O)N(C4CCC(=O)NC4=O)C5=O)nn3)n2)cc1 (stereo not drawn) [PEG4-thalidomide] | – | –
